Assay results reported in patent US12478640B2, “Inhalation of nitric oxide for treating respiratory diseases” (BEYOND AIR LTD, priority 2012, dated 2025).
Read-outs that look alike come from different tables or passages of the source.

Tests used:
[1] = gNO concentrations below 200 ppm; 6 hours/day for 28 days; rats; cited from earlier work
[2] = system: bovine respiratory disease; conditions: intermittent gNO inhalation; cattle; cited from earlier work
[3] = system: influenza A/victoria/H3N2; conditions: 160 ppm gNO, cited from earlier work
[4] = system: highly pathogenic Avian Influenza H7N3; conditions: cited from earlier work
[5] = cited from earlier work
P. aeruginosa = conditions: solid media, cited from earlier work
S. aureus = conditions: solid media, cited from earlier work
[6] = system: Pseudomonas aeruginosa pneumonia; conditions: 160 ppm gNO, intermittent 30 minute exposures; rat; cited from earlier work
[7] = phase I safety study: oxygen saturation (SpO2) by pulse oximeter; assay type: in vivo, human
Excerpt: (§1) Cohort: 10 healthy adult volunteer subjects (5 males, 5 females), aged 20 to 62 years, were enrolled in the study after screening their medical history, a physical examination, pulmonary function tests and blood values. Exclusion criteria included individuals less than 19 years of age, pregnant females and unwilling to practice birth control during the study, diagnosed with pulmonary disease, epistaxis, hemoptysis, methemoglobinemia, organ transplant recipient or receiving antibiotic therapy.
(§2) Regimen and post-treatment: After obtaining informed consent, treatment was initiated within 5 days of enrollment. […] Subject safety was determined by monitoring vital signs, methemoglobin levels, lung function, blood chemistry, hematology, prothrombin time, inflammatory cytokine/chemokines levels and endothelial activation. […]
(§3) General medical examinations were performed by a pulmonary physician on screening and on days 8, 12 and 26 to obtain oxygenation and vital sign measurements. […] Oxygenation was measured with a pulse oximeter (Rad 57, Masimo Corporation, USA) which was used according to manufacturer's guidelines to measure functional oxygen saturation of arterial hemoglobin (SPO2) and heart rate. These parameters were measured continuously during every gNO administration and for 3.5 hours after the first treatment of the day. […]

variety of microbes = conditions: 200 ppm gNO, cited from earlier work
[8] = phase I safety study: plasma angiopoietins Ang-1 and Ang-2; assay type: in vivo, human; conditions: 160 ppm gNO inhalation vs baseline
Excerpt: as §1
(§4) Regimen and post-treatment: After obtaining informed consent, treatment was initiated within 5 days of enrollment. Subjects were housed in a hospital ward and received 160 ppm gNO for 30 minutes every four hours (Q4h), five times a day, for five consecutive days by inhalation. Subjects returned for follow-up evaluations 3, 7 and 21 days after the final gNO administration. Subject safety was determined by monitoring vital signs, methemoglobin levels, lung function, blood chemistry, hematology, prothrombin time, inflammatory cytokine/chemokines levels and endothelial activation. These parameters were compared to baseline and at various time-points during and after gNO administration.
Hematological assessment included a complete blood count and differentials (hemoglobin, hematocrit, red blood cell count, white blood cell count, white blood cell differential, and platelet count) were obtained in order to monitor blood chemistry, hematology and inflammation measurements. The blood chemistry profile included serum creatinine, and liver function tests such as aspartate aminotransferase (AST) serum glutamic oxaloacetic transaminase (SGOT), alkaline phosphatase, and gamma-glutamyl transferase (GGT). The effect of gNO on coagulation was determined by the prothrombin time (PT) and its derived measures of prothrombin ratio (PR) and international normalized ratio (INR). […] Plasma cytokine levels were assessed using the human inflammation cytokine bead array kit (BD Bioscience, Canada). Plasma levels of angiopoietin Ang-1 and Ang-2 were determined by ELISA (R&D Systems, USA). […]

[9] = phase I safety study: pulmonary function tests; assay type: in vivo, human
Excerpt: as §1, §4
Subjects underwent full pulmonary function tests (PFT), including lung diffusing capacity (DLCO) by a trained technician utilizing a calibrated pulmonary function system (Jaeger MasterScreen, VIASYS Healthcare, USA) on screening and days 2, 8, 12 and 26. Spirometry test (Microloop by Micro Medical, England) was performed on days 1, 3 and 4. Effect of gNO on lung function and DLCO was determined by changes from baseline, treatment days and follow up days.

[10] = phase I safety study: methemoglobin (SpMet) by pulse oximeter; assay type: in vivo, human
Excerpt: as §1, §4
The levels of gNO, NO2, O2 and methemoglobin were monitored during the administration of gNO. The target gas mixture was 160 ppm gNO with a nitrogen dioxide (NO2) level of less than 5 ppm and an oxygen (O2) level ranging from 21% to 25%. Inspiratory NO, NO2 and O2 levels were continuously monitored by sampling from the mouthpiece sample port located about 6 millimeters from the mouth of the subject with an AeroNOx (Pulmonox, AB, Canada) NO, NO2 and O2 electrochemical analyzer. Delivery safety was determined by the number of occasions that NO2 exceeded 5 ppm, gNO exceeding 10% variation and O2 dropping below 20% during gNO administration. A commercially available noninvasive pulse oximeter (Rad 57, Masimo Corporation, USA) was used to measure saturation levels at the periphery of methemoglobin (SpMet).
These parameters were measured continuously during every gNO administration course and for 3.5 hours after the first treatment of the day. Daily serum samples were collected and frozen at −80° C. and the serum […] level was measured using the Griess reagent.

[11] = phase I safety study in healthy adults: adverse events and vital signs; assay type: in vivo, human; conditions: 160 ppm gNO 30 min, 5 times a day, 5 days
Excerpt: as §1, §2, §3

[12] = system: chronic, non-healing wound; conditions: topical 200 ppm gNO; within the first three days; cited from earlier work
[13] = phase I safety study: plasma cytokines, cytometric bead array; assay type: in vivo, human; conditions: 160 ppm gNO inhalation vs baseline
Excerpt: as §1, §4
Hematological assessment included a complete blood count and differentials (hemoglobin, hematocrit, red blood cell count, white blood cell count, white blood cell differential, and platelet count) were obtained in order to monitor blood chemistry, hematology and inflammation measurements. The blood chemistry profile included serum creatinine, and liver function tests such as aspartate aminotransferase (AST) serum glutamic oxaloacetic transaminase (SGOT), alkaline phosphatase, and gamma-glutamyl transferase (GGT). The effect of gNO on coagulation was determined by the prothrombin time (PT) and its derived measures of prothrombin ratio (PR) and international normalized ratio (INR). Heparinized plasma was collected at baseline and on days 1, 2, 4, and 5 of gNO administration, and on follow-up days 3, 7 and 21 and frozen at −80° C. Plasma cytokine levels were assessed using the human inflammation cytokine bead array kit (BD Bioscience, Canada). Plasma levels of angiopoietin Ang-1 and Ang-2 were determined by ELISA (R&D Systems, USA).
FIGS. 6A-F present blood levels of various cytokines before and after inhalation of 160 ppm gaseous nitric oxide by 10 healthy human individuals, as measured from blood samples collected within 7 days prior to gNO administration, each day during the treatment and 8, 12 and 26 days thereafter, wherein FIG. 6A presents the plasma levels of tumor necrosis factor (TNF)α, interleukin (IL)-1β data is presented in FIG. 6B, IL-6 in FIG. 6C, IL-8 in FIG. 6D, IL-10 in FIG. 6E and IL-12p70 in FIG. 6F, as determined by a cytometric bead array while statistical differences are compared by repeated measures ANOVA with Bonferroni post test for parametric data (IL-6, IL-8, IL-10, IL-12p70), or Friedman test with Dunn's post test for non-parametric data (TNF and IL-1b).

[14] = system: five planktonic species of methicillin resistant S. aureus (MRSA); conditions: 1,600 ppm hours of gNO; all five strains; cited from earlier work
[15] = healthy humans, cited from earlier work
[16] = gNO greater than 120 ppm, vs medical air
[17] = during the course of the study vs baseline

[N]=O [gNO, nitric oxide]
deaths [1]: No deaths occurred
clinical symptoms of bovine respiratory disease [2]: decrease the clinical symptoms
infectivity of virions ([3]; MDCK cells): reducing the infectivity
anti-viral effect, intermittent vs single exposure ([3]; one 30 minute dose vs three 30 minute treatments Q4h): more evident in the intermittent form of exposure
infectivity of virions [4]: reducing the infectivity
mortality ([5]; 300 ppm gNO, first 1-2 days, group of 10 rats): Six of the animals treated with 300 ppm gNO died
mortality ([5]; 400 ppm gNO, first day of exposure, groups of 10 rats): all of the animals died
mortality ([5]; 500 ppm gNO, first day of exposure, groups of 10 rats): all of the animals died
survival (downward bactericidal trend) (P. aeruginosa; 50-160 ppm gNO): 5-10%
reduction of colony formation (P. aeruginosa; [16]): greater than 90%
survival (downward bactericidal trend) (S. aureus; 50-160 ppm gNO): 5-10%
reduction of colony formation (S. aureus; [16]): greater than 90%
leukocyte infiltration [6]: effective to reduce
pulmonary bioburden [6]: effective to reduce
SpO2 change between pretreatment and post treatment ([7]; 160 ppm gNO, not significant statistically nor clinically): decreased slightly
hypoxemia (less than 85% SpO2) ([7]; during or after 160 ppm gNO administration): No sudden incidences of hypoxemia
bactericidal effect (variety of microbes; all microorganisms tested): complete bactericidal effect
reduction in CFU/mL (variety of microbes; every bacteria challenged): ≥ 3 log10
Ang-2/Ang-1 ratio [8]: not affected
plasma Ang-1 [8]: unaffected
plasma Ang-2 [8]: not affected
pulmonary function tests ([9]; during and after 160 ppm gNO treatments): did not reveal any abnormalities
FEV1 [9, 17]: did not differ from baseline
maximum mid-expiratory flow (MMEF) [9, 17]: did not differ from baseline
follow-up SpMet ([10]; 3, 7 and 21 days after final exposure): did not show any residual increase in SpMet
all 930 recorded methemoglobin percent levels (SpMet) ([10]; 160 ppm gNO 30 min, 5 times a day, 5 days): < 5%
SpMet increase between pretreatment and post treatment ([10]; 160 ppm gNO 30 min, p<0.001): about 1%
time for SpMet to return to baseline ([10]; after 160 ppm gNO 30 min, prior to next administration): 3.5 h
highest SpMet ([10]; at the end of the 30 minutes treatment, 160 ppm gNO): 2.5%
accumulation of SpMet with repeated treatments ([10]; five daily treatments for five consecutive days): no accumulative or lingering effect
SpMet level of subjects undergoing the method ([10]; general statement referring to the Examples): ≤ 1%
average increase of SpMet ([10]; single 30 minutes treatment course, 160 ppm gNO, baseline 0.16 percent): 0.9%
tolerability of treatments ([11]; 10 healthy adults, 250 administrations): well tolerated
minor adverse events reported ([11]; arm bruising from blood draws (1), numbing of tongue (2)): Three minor adverse events
biofilm of the wound [12]: no longer visibly present
plasma IL-1b level [13]: unaffected
plasma IL-6 level [13]: unaffected
plasma IL-8 level [13]: unaffected
plasma IL-10 level [13]: unaffected
plasma IL-12p70 level [13]: unaffected
plasma TNF level [13]: unaffected
population of planktonic MRSA strains [14]: reduction in the population
MetHb level ([15]; inhalation of 128 ppm for 3 hours): > 5%
MetHb level ([15]; inhalation of 512 ppm for 55 minutes): > 5%
